From patent US20170049688A1, “Herbal Combinations For Treating Psoriasis” (Sirbal Ltd., priority 2015, published 2017)
Like-named read-outs stand apart in the source and are kept apart here.

Key:
[1] = cited from earlier work
[2] = cited from earlier work; remark: listed apart in the source
[3] = cited from earlier work; remark: listed apart in the source
HT29 colon cancer cells = assay: Viability of HT29 tumor cells (PI staining); assay type: cell-based; conditions: 24-hour exposure
Method: (§1) In another example, the effect of CXCR4 antagonists on the survival of NB4, HL60, Jurkat leukemic cells and HT29 colon cancer and prostate tumor cells was examined.
(§2) Following the incubation, the cells were stained with propidium iodide (PI) (Sigma, St. Louis, Mo.) and percent of viable PI-negative cells in culture was determined by FACScalibur analysis (Becton Dickinson Immunocytometry Systems), using CellQuest software.
as §2

mice = conditions: cited from earlier work
[4] = tested on: mammary carcinoma of mice; conditions: intraperitoneal, 75 mg/kg; cited from earlier work
[5] = tested on: NB4, HL60, Jurkat leukemic cells; assay: Viability of leukemic cells (PI staining, FACS); assay type: cell-based, human; conditions: 24 hours
Method: as §1, §2, §2

murine melanoma = conditions: 5 mg/kg; cited from earlier work
thymidylate synthase = conditions: colon cancer cells; cited from earlier work
thymidine kinase = conditions: colon cancer cells; cited from earlier work
[6] = tested on: hemolytic plaque forming cells in the spleens of mice; conditions: cited from earlier work
[7] = tested on: central stimulation in mice and rats; conditions: oral administration; cited from earlier work

## O=C1c2cc(CO)cc(O)c2C(=O)c2c(OC3OC(CO)C(O)C(O)C3O)cccc21 (centres unmarked) [Aloe-emodin-8-glycoside]
[1]
  ED50 (oral purgative): 71.6 mg/kg

## O=C1c2cccc(O)c2C(=O)c2c(O)cc(CO)cc21 [Aloe-emodin]
[2]
  half-life: about 78 min

## CC1=CCC(C(C)(C)O)CC1 (stereo not drawn) [Alpha-terpineol]
[2]
  half life: about 1.245 hours

## OCC1=C[C@@H](O)[C@@H]2C=CO[C@@H](O[C@@H]3O[C@H](CO)[C@@H](O)[C@H](O)[C@H]3O)[C@H]12 [Aucubin]
[2]
  half life: about 42.5 minutes

## Cc1ccc(C(C)C)cc1O [Carvacrol]
[2]
  half life: about 1.29 hours

## CCC(=O)O[C@]1(C(=O)CCl)[C@@H](C)C[C@H]2[C@@H]3CCC4=CC(=O)C=C[C@]4(C)[C@@]3(F)[C@@H](O)C[C@@]21C [Clobetasol propionate]
[3]
  solubility in water: insoluble in water

## C[C@H]1O[C@@H](O[C@H]2[C@@H](O)C[C@H](O[C@H]3[C@@H](O)C[C@H](O[C@H]4CC[C@@]5(C)[C@H](CC[C@@H]6[C@@H]5C[C@@H](O)[C@]5(C)[C@@H](C7=CC(=O)OC7)CC[C@]65O)C4)O[C@@H]3C)O[C@@H]2C)C[C@H](O)[C@@H]1O [Digoxin, reference compound]
HT29 colon cancer cells
  effect on HT29 tumor cells: partial however significant effect
[2]
  half life: around 36 hours

## Cc1cc(O)c2c(c1)C(=O)c1cc(O)cc(O)c1C2=O [Emodin]
[1]
  ED50 (oral purgative): >500 mg/kg
mice
  LD50: 0.56 g/k″g
HT29 colon cancer cells
  effect on HT29 tumor cells: partial however significant effect
[4]
  inhibition against mammary carcinoma: 45%
[2]
  half-life: approximately 227 min
[5]
  concentrations inhibiting the growth of leukemic cells: more than 5 microgram/ml
Murine melanoma
  inhibition rate against murine melanoma: 73%

## CC(C)=CCC/C(C)=C/CO [Geraniol]
Thymidylate synthase
  reduction of thymidylate synthase expression: 2 fold
Thymidine kinase
  reduction of thymidine kinase expression: 2 fold

## O=c1cc(-c2ccc(O)c(O)c2)oc2cc(O)cc(O)c12 [Luteolin]
[2]
  half life: about 1.2 hours

## COc1cc(O)c2c(c1)C(=O)c1cc(C)cc(O)c1C2=O [Physcion]
[1]
  ED50 (oral purgative): >500 mg/kg

## COc1ccc(/C=C/c2cc(O)cc(O[C@@H]3O[C@H](CO)[C@@H](O)[C@H](O)[C@H]3O)c2)cc1O [Rhapontin]
[2]
  half life: about 23.5 minutes

## O=C(O)c1cc(O)c2c(c1)C(=O)c1cccc(O[C@@H]3O[C@H](CO)[C@@H](O)[C@H](O)[C@H]3O)c1C2=O [Rhein-8-glucoside]
[1]
  ED50 (oral purgative): 20.0 mg/kg

## O=C(O)c1cc(O)c2c(c1)C(=O)c1cccc(O)c1C2=O [Rhein]
[2]
  half-life: about 205 min

## O=C(O)c1cc(O)c2c(c1)[C@H]([C@H]1c3cc(C(=O)O)cc(O)c3C(=O)c3c(O[C@@H]4O[C@H](CO)[C@@H](O)[C@H](O)[C@H]4O)cccc31)c1cccc(O[C@@H]3O[C@H](CO)[C@@H](O)[C@H](O)[C@H]3O)c1C2=O [Sennoside A]
[1]
  ED50 (oral purgative): 13.5 mg/kg

## O=C(O)c1cc(O)c2c(c1)[C@@H]([C@H]1c3cc(C(=O)O)cc(O)c3C(=O)c3c(O[C@@H]4O[C@H](CO)[C@@H](O)[C@H](O)[C@H]4O)cccc31)c1cccc(O[C@@H]3O[C@H](CO)[C@@H](O)[C@H](O)[C@H]3O)c1C2=O [Sennoside B]
[1]
  ED50 (oral purgative): 13.9 mg/kg

## O=C(O)c1cc(O)c2c(c1)[C@H]([C@H]1c3cc(CO)cc(O)c3C(=O)c3c(O[C@@H]4O[C@H](CO)[C@@H](O)[C@H](O)[C@H]4O)cccc31)c1cccc(O[C@@H]3O[C@H](CO)[C@@H](O)[C@H](O)[C@H]3O)c1C2=O [Sennoside C]
[1]
  ED50 (oral purgative): 13.3 mg/kg

## O=C(O)c1cc(O)c2c(c1)[C@H]([C@@H]1c3cc(CO)cc(O)c3C(=O)c3c(O[C@@H]4O[C@H](CO)[C@@H](O)[C@H](O)[C@H]4O)cccc31)c1cccc(O[C@@H]3O[C@H](CO)[C@@H](O)[C@H](O)[C@H]3O)c1C2=O [Sennoside D]
[1]
  ED50 (oral purgative): 13.8 mg/kg

## O=C(O)C(=O)OC[C@H]1O[C@@H](Oc2cccc3c2C(=O)c2c(O)cc(C(=O)O)cc2[C@@H]3[C@H]2c3cc(C(=O)O)cc(O)c3C(=O)c3c(O[C@@H]4O[C@H](CO)[C@@H](O)[C@H](O)[C@H]4O)cccc32)[C@H](O)[C@@H](O)[C@@H]1O [Sennoside E]
[1]
  ED50 (oral purgative): 13.5 mg/kg

## O=C(O)C(=O)OC[C@H]1O[C@@H](Oc2cccc3c2C(=O)c2c(O)cc(C(=O)O)cc2[C@@H]3[C@@H]2c3cc(C(=O)O)cc(O)c3C(=O)c3c(O[C@@H]4O[C@H](CO)[C@@H](O)[C@H](O)[C@H]4O)cccc32)[C@H](O)[C@@H](O)[C@@H]1O [Sennoside F]
[1]
  ED50 (oral purgative): 16.1 mg/kg

## COc1cc(C(=O)O)ccc1O [Vanillic acid]
[2]
  half life: about 10.552 hours

## C[C@@H]1O[C@@H](O[C@@H]2[C@@H](O)[C@H](OCCc3ccc(O)c(O)c3)O[C@H](CO)[C@H]2OC(=O)/C=C/c2ccc(O)c(O)c2)[C@H](O)[C@H](O)[C@H]1O [acetoside]
[6]; oral dose of 100 mg/kg
  suppression of hemolytic plaque forming cells: 18%

## O=C(/C=C/c1ccc(O)c(O)c1)O[C@@H]1C[C@](O)(C(=O)O)C[C@@H](O)[C@H]1O [chlorogenic acid]
[7]
  potency of central stimulation relative to caffeine: 1/6

## O=P1(N(CCCl)CCCl)NCCCO1 (centres unmarked) [cyclophosphamide, reference compound]
[6]; intraperitoneal dose of 30 mg/kg
  suppression of hemolytic plaque forming cells: 52.5%

## CC[C@H](CC[C@@H](C)[C@H]1CC[C@H]2[C@@H]3CC=C4C[C@@H](O)CC[C@]4(C)[C@H]3CC[C@]12C)C(C)C [β-sitosterol]
[2]
  half life: about 0.966 hours

## Emodin monoglucoside
[1]
  ED50 (oral purgative): 103.6 mg/kg

## jionoside B
[6]; oral dose of 100 mg/kg
  suppression of hemolytic plaque forming cells: 36%
